This is an account of results in US5679680A, “α-substituted hydrazides having calpain inhibitory activity” (Warner-Lambert Company, priority 1995, dated 1997).

As a reminder, the IC50 is the concentration needed to halve the response being measured. A high value points to lower potency.

The target of one assay is T1, Human Calpain I (Homo sapiens, UniProt P07384).
T1 construct: Calpain I was purified from human erythrocytes; from tissue; host or cells: human erythrocytes
T1 sequence (P07384 1-714): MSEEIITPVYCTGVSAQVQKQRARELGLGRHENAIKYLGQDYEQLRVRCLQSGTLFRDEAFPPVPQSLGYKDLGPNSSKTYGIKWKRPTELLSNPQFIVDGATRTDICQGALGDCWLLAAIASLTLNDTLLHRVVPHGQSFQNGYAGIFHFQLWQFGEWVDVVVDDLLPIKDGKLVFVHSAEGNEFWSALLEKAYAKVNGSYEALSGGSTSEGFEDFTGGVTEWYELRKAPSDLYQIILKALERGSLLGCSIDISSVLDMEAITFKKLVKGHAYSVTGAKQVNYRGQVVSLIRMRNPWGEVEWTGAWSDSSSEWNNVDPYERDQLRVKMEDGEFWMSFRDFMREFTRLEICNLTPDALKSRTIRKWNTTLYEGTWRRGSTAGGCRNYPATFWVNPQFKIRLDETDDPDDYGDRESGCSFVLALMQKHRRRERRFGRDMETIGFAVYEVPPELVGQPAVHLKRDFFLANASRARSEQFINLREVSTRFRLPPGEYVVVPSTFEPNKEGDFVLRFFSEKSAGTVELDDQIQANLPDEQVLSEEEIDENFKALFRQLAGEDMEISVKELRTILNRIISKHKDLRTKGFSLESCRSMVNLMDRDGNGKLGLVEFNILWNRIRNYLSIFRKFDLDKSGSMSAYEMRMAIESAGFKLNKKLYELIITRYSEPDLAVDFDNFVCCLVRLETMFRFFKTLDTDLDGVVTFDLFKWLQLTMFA
T1 sequence (P04632 1-268 partner): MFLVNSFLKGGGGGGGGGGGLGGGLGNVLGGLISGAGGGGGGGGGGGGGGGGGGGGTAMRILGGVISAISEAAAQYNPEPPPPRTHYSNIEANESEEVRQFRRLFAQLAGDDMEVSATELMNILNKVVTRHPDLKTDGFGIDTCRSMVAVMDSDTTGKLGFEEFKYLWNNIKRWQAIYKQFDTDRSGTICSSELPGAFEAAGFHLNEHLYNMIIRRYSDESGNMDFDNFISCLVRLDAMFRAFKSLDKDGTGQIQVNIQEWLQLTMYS
The assay can be described thus: Calpain I activity, casein substrate, Coomassie microplate assay. In kind it is biochemical. On the procedure: (§1) Assay of calpain activity: Calpain I was purified from human erythrocytes as described by Wang K K W, Roufogalis B D, and Villalobo A, Arch Biochem Biophys 1988;267: 317-327. Calpain activity was assayed in a 96-well microplate format (Buroker-Kilgore M and Wang K K W, Anal Bio Chem 1993;208: 387-392). In 250 μL of reaction mixture, substrate casein (0.5 mg/mL) was incubated with 0.01 unit (80-120 ng) calpain I, 20 mM dithiothreitol (DTT), 50 mM Tris-HCl (pH 7.4 at 25° C.) and 4 mM CaCl2 at 25° C. for 60 minutes. Two 100-μL aliquots were taken for Coomassie blue G250 binding analysis to quantify the remaining casein.
(§2) Compound concentrations that cause 50% inhibition (IC50) are as shown (Table I). The second rate of inactivation of calpain I for 2 compounds are also shown.
(§3) Selectivity of α-substituted Hydrazides: Calpain I and II were assayed as described in Example 1. One to 2 ng papain (papaya latex, Sigma, P3125), 1.25 μg trypsin (bovine pancreas, Sigma, T8003), 5 μg thermolysin (Bacillus thermoproteolyticus, Sigma, P1512) were assayed using 0.5 mg/mL casein as substrate in the microplate format (250 μL reaction volume), essentially a described by Buroker-Kilgore, M. and Wang K K W, Anal Biochem 1993;208: 387-392. Cathepsin B (0.002 unit, bovine spleen) was assayed with 50 mM MES (pH 5.5), 100 μM carbobenzoxy-Arg-Arg-4-methoxy-beta-naphthlamide (Cbz-Arg-Arg-MNA), inhibitor, and 2 mM DTT in 200 μL for 60 minutes at room temperature. Fifty-microliter aliquots were transferred to a fluorescence-compatible plate and then read with a Perkin-Elmer fluorometer LS-50B (excitation 340 nm and emission 425 nm). Calcineurin (bovine brain, Sigma) (5 μg, 0.8 unit) was assayed with 10 mM p-nitrophenyl phosphate in 1 mM DTT, 1 mM CaCl2, 1 mM MnCl2, […] calmodulin (CaM, if added), and 50 mM Tris-HCl (pH 7.4) at 25° C. for 60 minutes or more. Production of p-nitrophenol was monitored at 405 nm. Inhibition of these proteases are presented as IC50.

The test system of assay [1] is Fetal Rat Cerebrocortical Cultures. Put plainly: Oxygen/glucose deprivation induced LDH release from fetal rat cerebrocortical cultures. In kind it is cell-based. On the technique in general: Release of lactate dehydrogenase indicates damage to the cell membrane.
A further assay concerns the target T2, Human Calpain II (Homo sapiens, UniProt P17655).
T2 sequence (P17655 1-700): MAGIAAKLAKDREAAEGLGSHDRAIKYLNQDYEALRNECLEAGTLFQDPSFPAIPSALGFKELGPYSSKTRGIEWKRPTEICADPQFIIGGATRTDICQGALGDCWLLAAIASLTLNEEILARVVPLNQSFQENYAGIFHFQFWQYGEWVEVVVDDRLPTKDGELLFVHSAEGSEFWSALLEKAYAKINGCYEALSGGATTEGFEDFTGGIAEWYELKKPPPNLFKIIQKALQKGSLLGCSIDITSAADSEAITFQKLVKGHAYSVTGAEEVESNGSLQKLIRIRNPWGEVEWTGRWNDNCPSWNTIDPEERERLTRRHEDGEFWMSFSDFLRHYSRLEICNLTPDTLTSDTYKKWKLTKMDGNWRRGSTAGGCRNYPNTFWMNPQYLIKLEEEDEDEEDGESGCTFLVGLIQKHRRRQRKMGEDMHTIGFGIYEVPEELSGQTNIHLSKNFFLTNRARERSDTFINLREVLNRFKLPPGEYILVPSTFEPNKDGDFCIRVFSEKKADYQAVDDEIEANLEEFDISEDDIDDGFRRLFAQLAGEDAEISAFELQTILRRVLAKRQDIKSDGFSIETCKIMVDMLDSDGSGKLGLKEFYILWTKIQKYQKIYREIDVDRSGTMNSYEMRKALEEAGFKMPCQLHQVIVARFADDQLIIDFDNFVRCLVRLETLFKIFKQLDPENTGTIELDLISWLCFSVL
T2 sequence (P04632 1-268 partner): T1 sequence (P04632 1-268 partner)
The assay can be described thus: Calpain II activity, casein substrate, Coomassie microplate assay. The format is biochemical. Particulars: casein 0.5 mg/mL (Table I). As for the experimental part: as §1, §2, §3

For `O=C(CCl)NN=c1[nH]c2ccccc2n(-c2ccccc2)c1=O` [Example 5, 2-Chloro-acetic acid (3-oxo-4-phenyl-3,4-dihydro-1H-quinoxalin-2-ylidene)-hydrazide], the “Ki/[I] Calpain I (second rate of inactivation)” value on Human Calpain I is 109 M⁻¹ s⁻¹. The IC50 turned out to be 364 nM against Human Calpain I (casein 0.5 mg/mL, pH 7.4, 25° C., 60 minutes (Table I)) and 590 nM against Human Calpain II. In assay [1] (Hypoxia/Hypoglycemia, mean ± SEM (6), p < 0.001 vs Hypoxia/Hypoglycemia alone (143.81 ± 9.72), Normoxia 46.13 ± 6.08), this molecule returned an LDH release of 57.27 ± 8.11 Unit/mL. Also, the “Resistance of neurons to oxygen/glucose deprivation” value in assay [1] (LDH release after 24 hours) is recorded as “enabled the neurons to resist the oxygen/glucose deprivation for longer”.
